Experimental data reported in paper PMC5332414, “Mycobacterium abscessus subsp. abscessus Is Capable of Degrading Pseudomonas aeruginosa Quinolone Signals” (Frontiers in Microbiology, 2017).

How the values were obtained:
[1] = biological target: T1, AqdB (His8-MBP-AqdB) (Mycobacteroides abscessus, UniProt B1MFK1); assay: biotransformation by recombinant E. coli cells, HPLC; format: cell-based; details: 20 μM HHQ, LB medium; E. coli Rosetta without aqdB did not convert HHQ
T1 construct: His8-MBP fusion, pET28b(+), expressed in E. coli Rosetta(DE3) whole cells
T1 sequence (B1MFK1 whole entry, the tested form may be a part): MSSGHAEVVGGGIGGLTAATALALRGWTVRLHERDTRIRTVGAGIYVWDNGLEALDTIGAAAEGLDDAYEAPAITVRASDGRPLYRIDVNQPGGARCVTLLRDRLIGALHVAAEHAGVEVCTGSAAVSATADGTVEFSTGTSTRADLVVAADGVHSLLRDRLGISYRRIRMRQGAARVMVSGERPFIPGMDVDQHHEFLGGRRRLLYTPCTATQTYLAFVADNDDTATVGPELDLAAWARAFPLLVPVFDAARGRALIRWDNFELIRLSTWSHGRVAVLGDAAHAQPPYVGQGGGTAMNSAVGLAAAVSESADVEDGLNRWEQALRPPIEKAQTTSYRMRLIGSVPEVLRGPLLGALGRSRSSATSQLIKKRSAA

[2] = test system: CCCCCCCc1[nH]c2ccccc2c(=O)c1O; assay: purified protein; format: biochemical, Mycobacteroides abscessus; details: apparent, co-substrate O2, 50 mM Tris, 2 mM EDTA, 10% PEG 1500, 4% (v/v) DMSO, pH 8.0, 30°C

Compound	biotransformation by recombinant E. coli cells, HPLC [1]	Km [2]	kcat [2]
CCCCCCCc1cc(=O)c2ccccc2[nH]1 [HHQ, 2-heptyl-4(1H)-quinolone]	E. coli cells producing the His8-MBP-AqdB protein converted HHQ to PQS	–	–
CCCCCCCc1[nH]c2ccccc2c(=O)c1O [PQS, 2-heptyl-3-hydroxy-4(1H)-quinolone]	E. coli cells producing the His8-MBP-AqdB protein converted HHQ to PQS	–	–
AqdC (AqdC^I) (Mycobacteroides abscessus ATCC 19977)	–	37.2 ± 9.8 µM	97.8 ± 19.1 s⁻¹
